Reference: patent US6762207B1, “(E)-styryl sulfone anticancer agents” (priority 1999, dated 2004)

Legend:
Type in all cases: cell-based
Set-up in all cases: dose or concentration left out as unconfirmed
Details in all cases: 96 hours
[1] = test system: prostate tumor cell line DU-145; experiment: Trypan blue exclusion viability assay, DU145
Experimental: (§1) MCF-7 is estrogen-responsive, while BT-20 is an estrogen-unresponsive cell line. NIH/3T3 and HFL are normal murine and human fibroblasts, respectively. MCF-7, BT-20, DLD-1 and H157 were grown in Dulbecco's modified Eagle's medium (DMEM) containing 10% fetal bovine serum supplemented with penicillin and streptomycin. DU145 was cultured in RPMI with 10% fetal bovine serum containing penicillin and streptomycin. […] All cell cultures were maintained at 37° C. in a humidified atmosphere of 5% CO2. Cells were treated with test compound at 2.5 mM concentration and cell viability was determined after 96 hours by the Trypan blue exclusion method.

[2] = test system: breast tumor cell line MCF-7; experiment: Trypan blue exclusion viability assay, MCF-7
Experimental: as §1

[3] = test system: non-small cell lung carcinoma cell line H157; experiment: Trypan blue exclusion viability assay, H157
Experimental: as §1

[4] = test system: colorectal carcinoma cell line DLD-1; experiment: Trypan blue exclusion viability assay, DLD-1
Experimental: as §1

[5] = test system: breast tumor cell line BT-20; experiment: Trypan blue exclusion viability assay, BT20
Experimental: as §1

Molecule	Cell death, DU145 [1]	Cell death, MCF-7 [2]	Cell death, H157 [3]	Cell death, DLD-1 [4]	Cell death, BT20 [5]
N#Cc1ccc(CS(=O)(=O)/C=C/c2ccc(F)cc2)cc1 [Example 10, (E)-4-Fluorostyryl-4-cyanobenzylsulfone]	++ (10-15% = ++)	+++ (40-50% = +++)	+++ (40-50% = +++)	–	–
N#Cc1ccc(CS(=O)(=O)/C=C/c2ccc(Cl)cc2)cc1 [Example 11, (E)-4-Chlorostyryl-4-cyanobenzylsulfone]	+ (5-10%: = +)	+ (5-10%: = +)	+ (5-10%: = +)	–	–
O=S(=O)(/C=C/c1ccc(Cl)cc1Cl)Cc1ccc(Cl)cc1 [Example 16, (E)-2,4-Dichlorostyryl-4-chlorobenzylsulfone]	+++ (40-50% = +++)	++++ (50-60% = ++++)	–	++++ (50-60% = ++++)	–
O=S(=O)(/C=C/c1ccc(Cl)c(Cl)c1)Cc1ccc(Cl)cc1 [Example 17, (E)-3,4-Dichlorostyryl-4-chlorobenzylsulfone]	+ (5-10%: = +)	+ (5-10%: = +)	–	+ (5-10%: = +)	–
O=S(=O)(/C=C/c1cccc(Cl)c1Cl)Cc1ccc(Cl)cc1 [Example 18, (E)-2,3-Dichlorostyryl-4-chlorobenzylsulfone]	+ (5-10%: = +)	+ (5-10%: = +)	–	+ (5-10%: = +)	–
O=[N+]([O-])c1ccccc1/C=C/S(=O)(=O)Cc1ccc(Br)cc1 [Example 46, (E)-2-nitrostyryl-4-bromobenzylsulfone]	+ (5-10%: = +)	–	+ (5-10%: = +)	+ (5-10%: = +)	+ (5-10%: = +)
O=[N+]([O-])c1cccc(/C=C/S(=O)(=O)Cc2ccc(Br)cc2)c1 [Example 47, (E)-3-nitrostyryl-4-bromobenzylsulfone]	+ (5-10%: = +)	–	+ (5-10%: = +)	+ (5-10%: = +)	+ (5-10%: = +)
O=[N+]([O-])c1ccc(/C=C/S(=O)(=O)Cc2ccc(Br)cc2)cc1 [Example 48, (E)-4-nitrostyryl-4-bromobenzylsulfone]	++++ (50-60% = ++++)	–	++++ (50-60% = ++++)	++++ (50-60% = ++++)	++++ (50-60% = ++++)
O=S(=O)(/C=C/c1ccccc1C(F)(F)F)Cc1ccc(Br)cc1 [Example 49, (E)-2-trifluoromethylstyryl-4-bromobenzylsulfone]	+ (5-10%: = +)	–	+ (5-10%: = +)	+ (5-10%: = +)	+ (5-10%: = +)
N#Cc1ccc(CS(=O)(=O)/C=C/c2ccccc2[N+](=O)[O-])cc1 [Example 52, (E)-2-nitrostyryl-4-cyanobenzylsulfone]	+ (5-10%: = +)	–	+ (5-10%: = +)	+ (5-10%: = +)	+ (5-10%: = +)
N#Cc1ccc(CS(=O)(=O)/C=C/c2cccc([N+](=O)[O-])c2)cc1 [Example 53, (E)-3-nitrostyryl-4-cyanobenzylsulfone]	+ (5-10%: = +)	–	+ (5-10%: = +)	+ (5-10%: = +)	+ (5-10%: = +)
N#Cc1ccc(CS(=O)(=O)/C=C/c2ccc([N+](=O)[O-])cc2)cc1 [Example 54, (E)-4-nitrostyryl-4-cyanobenzylsulfone]	++++ (50-60% = ++++)	–	++++ (50-60% = ++++)	++++ (50-60% = ++++)	++++ (50-60% = ++++)
Cc1ccc(CS(=O)(=O)/C=C/c2ccc(F)cc2)cc1 [Example 55, (E)-4-fluorostyryl-4-methylbenzylsulfone]	+ (5-10%: = +)	–	+ (5-10%: = +)	+ (5-10%: = +)	+ (5-10%: = +)
Cc1ccc(CS(=O)(=O)/C=C/c2ccc(Br)cc2)cc1 [Example 56, (E)-4-bromostyryl-4-methylbenzylsulfone]	+ (5-10%: = +)	–	+ (5-10%: = +)	+ (5-10%: = +)	+ (5-10%: = +)
Cc1ccc(CS(=O)(=O)/C=C/c2ccccc2[N+](=O)[O-])cc1 [Example 57, (E)-2-nitrostyryl-4-methylbenzylsulfone]	+ (5-10%: = +)	–	+ (5-10%: = +)	+ (5-10%: = +)	+ (5-10%: = +)
Cc1ccc(CS(=O)(=O)/C=C/c2cccc([N+](=O)[O-])c2)cc1 [Example 58, (E)-3-nitrostyryl-4-methylbenzylsulfone]	+ (5-10%: = +)	–	+ (5-10%: = +)	+ (5-10%: = +)	+ (5-10%: = +)
Cc1ccc(CS(=O)(=O)/C=C/c2ccc([N+](=O)[O-])cc2)cc1 [Example 59, (E)-4-nitrostyryl-4-methylbenzylsulfone]	+ (5-10%: = +)	–	+ (5-10%: = +)	+ (5-10%: = +)	+ (5-10%: = +)
COc1ccc(CS(=O)(=O)/C=C/c2ccc(F)cc2)cc1 [Example 60, (E)-4-fluorostyryl-4-methoxybenzylsulfone]	+++++ (Above 80% = +++++)	–	+++++ (Above 80% = +++++)	+++++ (Above 80% = +++++)	+++++ (Above 80% = +++++)
COc1ccc(CS(=O)(=O)/C=C/c2ccc(Cl)cc2)cc1 [Example 61, (E)-4-chlorostyryl-4-methoxybenzylsulfone]	++++ (50-60% = ++++)	–	++++ (50-60% = ++++)	++++ (50-60% = ++++)	++++ (50-60% = ++++)
COc1ccc(CS(=O)(=O)/C=C/c2ccc(Br)cc2)cc1 [Example 62, (E)-4-bromostyryl-4-methoxybenzylsulfone]	++++ (50-60% = ++++)	–	++++ (50-60% = ++++)	++++ (50-60% = ++++)	++++ (50-60% = ++++)
COc1ccc(CS(=O)(=O)/C=C/c2ccccc2[N+](=O)[O-])cc1 [Example 63, (E)-2-nitrostyryl-4-methoxybenzylsulfone]	+ (5-10%: = +)	–	+ (5-10%: = +)	+ (5-10%: = +)	+ (5-10%: = +)
COc1ccc(CS(=O)(=O)/C=C/c2cccc([N+](=O)[O-])c2)cc1 [Example 64, (E)-3-nitrostyryl-4-methoxybenzylsulfone]	+ (5-10%: = +)	–	+ (5-10%: = +)	+ (5-10%: = +)	+ (5-10%: = +)
COc1ccc(CS(=O)(=O)/C=C/c2ccc([N+](=O)[O-])cc2)cc1 [Example 65, (E)-4-nitrostyryl-4-methoxybenzylsulfone]	++++ (50-60% = ++++)	–	++++ (50-60% = ++++)	++++ (50-60% = ++++)	++++ (50-60% = ++++)
O=[N+]([O-])c1ccc(CS(=O)(=O)/C=C/c2ccc(Cl)cc2)cc1 [Example 66, (E)-4-chlorostyryl-4-nitrobenzylsulfone]	+ (5-10%: = +)	–	+ (5-10%: = +)	+ (5-10%: = +)	+ (5-10%: = +)
O=[N+]([O-])c1ccc(CS(=O)(=O)/C=C/c2ccc(F)cc2)cc1 [Example 67, (E)-4-fluorostyryl-4-nitrobenzylsulfone]	+ (5-10%: = +)	–	+ (5-10%: = +)	+ (5-10%: = +)	+ (5-10%: = +)
(E)-4-trifluoromethylstyryl-4-bromoyanobenzylsulfone [Example 51]	+ (5-10%: = +)	–	+ (5-10%: = +)	+ (5-10%: = +)	+ (5-10%: = +)
